Experimental data as given in ChEMBL document CHEMBL5252552, “Defined concatenated α6α1β3γ2 GABAA receptor constructs reveal dual action of pyrazoloquinolinone allosteric modulators” (Bioorg Med Chem, 2019).

What was measured:
Oocyte = assay: Positive allosteric modulation of rat recombinant GABAA alpha1beta3alpha1 receptor expressed in Xenopus laevis oocytes assessed as activation of maximal current at -80 mV holding potential in presence of GABA EC1 to 1.5 by two-electrode voltage-clamp assay; type: cell-based; conditions: filed as positive allosteric modulator
[1] = target: T1, Gamma-aminobutyric acid receptor subunit alpha-6/beta-3/gamma-2 (Rattus norvegicus, UniProt P18508+P30191+P63079); assay: (§1) Positive allosteric modulation of rat recombinant GABAA alpha6beta3alpha6-gamma2beta3 receptor expressed in Xenopus laevis oocytes assessed as increase in GABA-induced current amplitude at -80 mV holding potential under more potent phase in presence of GABA EC1 to 1.5 by two-electrode voltage-clamp assay; type: cell-based, Oocyte
T1 sequence (P18508 whole entry): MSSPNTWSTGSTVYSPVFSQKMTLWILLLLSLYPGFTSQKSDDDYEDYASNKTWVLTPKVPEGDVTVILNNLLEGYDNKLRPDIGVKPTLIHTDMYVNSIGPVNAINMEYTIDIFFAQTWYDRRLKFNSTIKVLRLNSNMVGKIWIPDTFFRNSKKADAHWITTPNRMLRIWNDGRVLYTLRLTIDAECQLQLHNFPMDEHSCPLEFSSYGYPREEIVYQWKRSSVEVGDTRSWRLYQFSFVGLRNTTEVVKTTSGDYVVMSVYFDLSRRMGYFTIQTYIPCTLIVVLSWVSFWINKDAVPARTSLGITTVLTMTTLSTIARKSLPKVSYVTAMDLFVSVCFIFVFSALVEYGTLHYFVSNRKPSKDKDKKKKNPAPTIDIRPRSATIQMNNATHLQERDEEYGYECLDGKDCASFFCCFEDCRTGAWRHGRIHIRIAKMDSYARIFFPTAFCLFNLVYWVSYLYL
T1 sequence (P30191 whole entry): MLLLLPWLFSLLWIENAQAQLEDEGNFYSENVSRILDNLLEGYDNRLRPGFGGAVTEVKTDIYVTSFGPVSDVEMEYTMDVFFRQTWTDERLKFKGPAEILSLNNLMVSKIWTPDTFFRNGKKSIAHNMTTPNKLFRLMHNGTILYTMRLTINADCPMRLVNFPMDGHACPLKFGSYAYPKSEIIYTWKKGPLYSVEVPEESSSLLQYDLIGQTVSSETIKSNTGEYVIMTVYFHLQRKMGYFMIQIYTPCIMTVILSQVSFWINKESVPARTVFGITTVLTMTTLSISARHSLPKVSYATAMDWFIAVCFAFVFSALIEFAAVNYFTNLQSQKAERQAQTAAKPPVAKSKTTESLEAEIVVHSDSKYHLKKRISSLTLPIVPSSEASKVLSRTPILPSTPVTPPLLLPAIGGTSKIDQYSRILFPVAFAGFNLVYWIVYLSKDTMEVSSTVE
T1 sequence (P63079 whole entry): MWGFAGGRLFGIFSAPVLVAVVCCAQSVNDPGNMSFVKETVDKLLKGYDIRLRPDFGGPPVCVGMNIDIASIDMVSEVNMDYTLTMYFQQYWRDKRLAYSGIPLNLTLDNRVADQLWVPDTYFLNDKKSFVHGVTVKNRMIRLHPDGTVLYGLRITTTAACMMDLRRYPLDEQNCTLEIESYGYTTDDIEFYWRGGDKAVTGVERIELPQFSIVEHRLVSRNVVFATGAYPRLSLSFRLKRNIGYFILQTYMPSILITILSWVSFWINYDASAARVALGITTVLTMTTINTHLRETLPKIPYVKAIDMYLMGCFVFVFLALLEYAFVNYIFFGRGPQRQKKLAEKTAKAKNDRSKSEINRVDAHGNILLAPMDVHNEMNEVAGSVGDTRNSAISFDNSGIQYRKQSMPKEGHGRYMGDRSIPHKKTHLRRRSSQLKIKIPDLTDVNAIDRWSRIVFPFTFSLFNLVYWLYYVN

[2] = target: T1, Gamma-aminobutyric acid receptor subunit alpha-6/beta-3/gamma-2; assay: as §1, with “less” for “more”; type: cell-based, Oocyte
[3] = target: T2, Gamma-aminobutyric acid receptor subunit alpha-6/beta-3/gamma-2 (Rattus norvegicus) (UniProt P18508+P30191+P63079); assay: Positive allosteric modulation of rat recombinant GABAA alpha6beta3alpha6-gamma2beta3 receptor expressed in Xenopus laevis oocytes assessed as maximal current at -80 mV holding potential under more potent phase in presence of GABA EC1 to 1.5 by two-electrode voltage-clamp assay relative to control; type: cell-based; conditions: Oocyte, filed as positive allosteric modulator
[4] = target: T2, Gamma-aminobutyric acid receptor subunit alpha-6/beta-3/gamma-2 (Rattus norvegicus); assay: Positive allosteric modulation of rat recombinant GABAA alpha6beta3alpha6-gamma2beta3 receptor expressed in Xenopus laevis oocytes assessed as maximal current under less potent phase in presence of GABA EC1 to 1.5 by two-electrode voltage-clamp assay relative to control; type: cell-based; conditions: Oocyte, filed as positive allosteric modulator
[5] = target: T2, Gamma-aminobutyric acid receptor subunit alpha-6/beta-3/gamma-2 (Rattus norvegicus); assay: Positive allosteric modulation of rat recombinant GABAA alpha6beta3alpha6-gamma2beta3 receptor expressed in Xenopus laevis oocytes assessed as maximal efficacy at -80 mV holding potential at 1 nM in presence of GABA EC1 to 1.5 by two-electrode voltage-clamp assay; type: cell-based; conditions: Oocyte
[6] = target: T2, Gamma-aminobutyric acid receptor subunit alpha-6/beta-3/gamma-2 (Rattus norvegicus); assay: Positive allosteric modulation of rat recombinant GABAA alpha6beta3alpha6-gamma2beta3 receptor expressed in Xenopus laevis oocytes assessed as maximal efficacy at -80 mV holding potential at 3 nM in presence of GABA EC1 to 1.5 by two-electrode voltage-clamp assay; type: cell-based; conditions: Oocyte
[7] = target: T2, Gamma-aminobutyric acid receptor subunit alpha-6/beta-3/gamma-2 (Rattus norvegicus); assay: Positive allosteric modulation of rat recombinant GABAA alpha6beta3alpha6-gamma2beta3 receptor expressed in Xenopus laevis oocytes assessed as maximal efficacy at -80 mV holding potential at 10 nM in presence of GABA EC1 to 1.5 by two-electrode voltage-clamp assay; type: cell-based; conditions: Oocyte
[8] = target: T2, Gamma-aminobutyric acid receptor subunit alpha-6/beta-3/gamma-2 (Rattus norvegicus); assay: Positive allosteric modulation of rat recombinant GABAA alpha6beta3alpha6-gamma2beta3 receptor expressed in Xenopus laevis oocytes assessed as maximal efficacy at -80 mV holding potential at 30 nM in presence of GABA EC1 to 1.5 by two-electrode voltage-clamp assay; type: cell-based; conditions: Oocyte
[9] = target: T2, Gamma-aminobutyric acid receptor subunit alpha-6/beta-3/gamma-2 (Rattus norvegicus); assay: Positive allosteric modulation of rat recombinant GABAA alpha6beta3alpha6-gamma2beta3 receptor expressed in Xenopus laevis oocytes assessed as maximal efficacy at -80 mV holding potential at 100 nM in presence of GABA EC1 to 1.5 by two-electrode voltage-clamp assay; type: cell-based; conditions: Oocyte, filed as positive allosteric modulator
[10] = target: T2, Gamma-aminobutyric acid receptor subunit alpha-6/beta-3/gamma-2 (Rattus norvegicus); assay: Positive allosteric modulation of rat recombinant GABAA alpha6beta3alpha6-gamma2beta3 receptor expressed in Xenopus laevis oocytes assessed as maximal efficacy at -80 mV holding potential at 300 nM in presence of GABA EC1 to 1.5 by two-electrode voltage-clamp assay; type: cell-based; conditions: Oocyte, filed as positive allosteric modulator
[11] = target: T2, Gamma-aminobutyric acid receptor subunit alpha-6/beta-3/gamma-2 (Rattus norvegicus); assay: Positive allosteric modulation of rat recombinant GABAA alpha6beta3alpha6-gamma2beta3 receptor expressed in Xenopus laevis oocytes assessed as maximal efficacy at -80 mV holding potential at 1 uM in presence of GABA EC1 to 1.5 by two-electrode voltage-clamp assay; type: cell-based; conditions: Oocyte, filed as positive allosteric modulator
[12] = target: T2, Gamma-aminobutyric acid receptor subunit alpha-6/beta-3/gamma-2 (Rattus norvegicus); assay: Positive allosteric modulation of rat recombinant GABAA alpha6beta3alpha6-gamma2beta3 receptor expressed in Xenopus laevis oocytes assessed as maximal efficacy at -80 mV holding potential at 3 uM in presence of GABA EC1 to 1.5 by two-electrode voltage-clamp assay; type: cell-based; conditions: Oocyte, filed as positive allosteric modulator
[13] = target: T2, Gamma-aminobutyric acid receptor subunit alpha-6/beta-3/gamma-2 (Rattus norvegicus); assay: Positive allosteric modulation of rat recombinant GABAA alpha6beta3alpha6-gamma2beta3 receptor expressed in Xenopus laevis oocytes assessed as maximal efficacy at -80 mV holding potential at 10 uM in presence of GABA EC1 to 1.5 by two-electrode voltage-clamp assay; type: cell-based; conditions: Oocyte, filed as positive allosteric modulator
[14] = target: T2, Gamma-aminobutyric acid receptor subunit alpha-6/beta-3/gamma-2 (Rattus norvegicus); assay: Positive allosteric modulation of rat recombinant GABAA alpha6beta3alpha6-gamma2beta3 receptor expressed in Xenopus laevis oocytes assessed as maximal efficacy at -80 mV holding potential at 30 uM in presence of GABA EC1 to 1.5 by two-electrode voltage-clamp assay; type: cell-based; conditions: Oocyte, filed as positive allosteric modulator
[15] = target: T3, Gamma-aminobutyric acid receptor subunit alpha-1/beta-3/gamma-2 (Rattus norvegicus) (UniProt P18508+P62813+P63079); assay: Positive allosteric modulation of rat recombinant GABAA alpha1beta3alpha1-gamma2beta3 receptor expressed in Xenopus laevis oocytes assessed as maximal efficacy at -80 mV holding potential at 30 uM in presence of GABA EC1 to 1.5 by two-electrode voltage-clamp assay; type: cell-based; conditions: Oocyte
[16] = target: T4, Gamma-aminobutyric acid receptor subunit alpha-1/alpha-6/beta-3/gamma-2 (Rattus norvegicus) (UniProt P18508+P30191+P62813+P63079); assay: Positive allosteric modulation of rat recombinant GABAA alpha6beta3alpha1-gamma2beta3 receptor expressed in Xenopus laevis oocytes assessed as maximal efficacy at -80 mV holding potential at 30 nM in presence of GABA EC1 to 1.5 by two-electrode voltage-clamp assay; type: cell-based; conditions: Oocyte
[17] = target: T4, Gamma-aminobutyric acid receptor subunit alpha-1/alpha-6/beta-3/gamma-2 (Rattus norvegicus); assay: Positive allosteric modulation of rat recombinant GABAA alpha6beta3alpha1-gamma2beta3 receptor expressed in Xenopus laevis oocytes assessed as maximal efficacy at -80 mV holding potential at 100 nM in presence of GABA EC1 to 1.5 by two-electrode voltage-clamp assay; type: cell-based; conditions: Oocyte
[18] = target: T4, Gamma-aminobutyric acid receptor subunit alpha-1/alpha-6/beta-3/gamma-2 (Rattus norvegicus); assay: Positive allosteric modulation of rat recombinant GABAA alpha6beta3alpha1-gamma2beta3 receptor expressed in Xenopus laevis oocytes assessed as maximal efficacy at -80 mV holding potential at 300 nM in presence of GABA EC1 to 1.5 by two-electrode voltage-clamp assay; type: cell-based; conditions: Oocyte
[19] = target: T4, Gamma-aminobutyric acid receptor subunit alpha-1/alpha-6/beta-3/gamma-2 (Rattus norvegicus); assay: Positive allosteric modulation of rat recombinant GABAA alpha6beta3alpha1-gamma2beta3 receptor expressed in Xenopus laevis oocytes assessed as maximal efficacy at -80 mV holding potential at 30 uM in presence of GABA EC1 to 1.5 by two-electrode voltage-clamp assay; type: cell-based; conditions: Oocyte, filed as positive allosteric modulator
[20] = target: T1, Gamma-aminobutyric acid receptor subunit alpha-6/beta-3/gamma-2; assay: Positive allosteric modulation of rat recombinant GABAA alpha6beta3alpha6-gamma2beta3 receptor expressed in Xenopus laevis oocytes assessed as increase in GABA-induced current amplitude at -80 mV holding potential in presence of GABA EC1 to 1.5 by two-electrode voltage-clamp assay; type: cell-based, Oocyte
[21] = target: T2, Gamma-aminobutyric acid receptor subunit alpha-6/beta-3/gamma-2 (Rattus norvegicus); assay: Positive allosteric modulation of rat recombinant GABAA alpha6beta3alpha6-gamma2beta3 receptor expressed in Xenopus laevis oocytes assessed as maximal current at -80 mV holding potential in presence of GABA EC1 to 1.5 by two-electrode voltage-clamp assay relative to control; type: cell-based; conditions: Oocyte, filed as positive allosteric modulator
[22] = target: T3, Gamma-aminobutyric acid receptor subunit alpha-1/beta-3/gamma-2 (Rattus norvegicus); assay: Positive allosteric modulation of rat recombinant GABAA alpha1beta3alpha1-gamma2beta3 receptor expressed in Xenopus laevis oocytes assessed as maximal efficacy at -80 mV holding potential at 30 nM in presence of GABA EC1 to 1.5 by two-electrode voltage-clamp assay; type: cell-based; conditions: Oocyte
[23] = target: T3, Gamma-aminobutyric acid receptor subunit alpha-1/beta-3/gamma-2 (Rattus norvegicus); assay: Positive allosteric modulation of rat recombinant GABAA alpha1beta3alpha1-gamma2beta3 receptor expressed in Xenopus laevis oocytes assessed as maximal efficacy at -80 mV holding potential at 100 nM in presence of GABA EC1 to 1.5 by two-electrode voltage-clamp assay; type: cell-based; conditions: Oocyte
[24] = target: T3, Gamma-aminobutyric acid receptor subunit alpha-1/beta-3/gamma-2 (Rattus norvegicus); assay: Positive allosteric modulation of rat recombinant GABAA alpha1beta3alpha1-gamma2beta3 receptor expressed in Xenopus laevis oocytes assessed as maximal efficacy at -80 mV holding potential at 300 nM in presence of GABA EC1 to 1.5 by two-electrode voltage-clamp assay; type: cell-based; conditions: Oocyte
[25] = target: T2, Gamma-aminobutyric acid receptor subunit alpha-6/beta-3/gamma-2 (Rattus norvegicus); assay: Positive allosteric modulation of rat recombinant GABAA alpha6beta3gamma2 receptor expressed in Xenopus laevis oocytes assessed as potentiation of GABA-induced response under less potent current at -80 mV holding potential at 30 uM in presence of GABA EC1 to 1.5 by two-electrode voltage-clamp assay; type: cell-based; conditions: Oocyte, filed as positive allosteric modulator
[26] = target: T2, Gamma-aminobutyric acid receptor subunit alpha-6/beta-3/gamma-2 (Rattus norvegicus); assay: Positive allosteric modulation of rat recombinant GABAA alpha6beta3gamma2 receptor expressed in Xenopus laevis oocytes assessed as potentiation of GABA-induced response under more potent current at -80 mV holding potential at 100 nM in presence of GABA EC1 to 1.5 by two-electrode voltage-clamp assay; type: cell-based; conditions: Oocyte, filed as positive allosteric modulator
[27] = target: T2, Gamma-aminobutyric acid receptor subunit alpha-6/beta-3/gamma-2 (Rattus norvegicus); assay: Positive allosteric modulation of rat recombinant GABAA alpha6beta3gamma2 receptor expressed in Xenopus laevis oocytes assessed as potentiation of GABA-induced response under more potent current at -80 mV holding potential at 30 uM in presence of GABA EC1 to 1.5 by two-electrode voltage-clamp assay; type: cell-based; conditions: Oocyte, filed as positive allosteric modulator
[28] = filed as positive allosteric modulator

Compound	EC50 [1] [µM]	EC50 [2] [µM]	%max [3] [%]	%max [4] [%]	Efficacy [5] [%]	Efficacy [6] [%]	Efficacy [7] [%]	Efficacy [8] [%]	Efficacy [9] [%]	Efficacy [10] [%]	Efficacy [11] [%]	Efficacy [12] [%]	Efficacy [13] [%]	Efficacy [14] [%]	Efficacy [16] [%]	Efficacy [17] [%]	Efficacy [18] [%]	Efficacy [19] [%]	Efficacy [8, 28] [%]	other results
CN1C(=O)CN=C(c2ccccc2)c2cc(Cl)ccc21																				Activity (Oocyte): 30 nanoampere
CCc1ccc2c3nn(-c4ccc(OC)cc4)c(=O)c-3c[nH]c2c1	0.023	299	57	4980	3	4	21	29	54	74	127	216	621	1940	5	5	7	1510		Efficacy [15, 28]: 1040%
COc1ccc(-n2nc3c4ccc(Cl)cc4[nH]cc-3c2=O)cc1	0.01	17	56	796	6	13	22		65	94	180	387	688	703					40	
COc1ccc(-n2nc3c4ccc(C)cc4[nH]cc-3c2=O)cc1					25	31			100	149	234	456	1020	1310					60	EC50 [20]: 13 µM; %max [21]: 2050%; Efficacy [7, 28]: 40%
COc1ccc(-n2nc3c4ccc(C(C)=O)cc4[nH]cc-3c2=O)cc1	0.05	735	82	2210	9	13	27	31	52	67	101	127	205	426	3	3	11	338		Efficacy [22]: 1%; Efficacy [23]: 1%; Efficacy [24]: 1%; Efficacy [15]: 10%; Activity [25]: 80%; Activity [26]: 62%; Activity [27]: 280%
